From the NIST ThermoML archive (doi:10.1016/j.jct.2011.12.010)
± gives the expanded uncertainty stated by the source.

Test: Molar enthalpy of transition or fusion
Settings: Crystal; Adiabatic calorimetry

SMILES: CC(C)(C)Cc1ccccc1 [(2,2-dimethylpropyl)benzene]
- Molar enthalpy of transition or fusion: 3.676 ± 0.0239 kcal/mol
